Test system: Plasmodium falciparum
Assay: GSK_TCMDC: Inhibition of Plasmodium falciparum 3D7 in whole erythrocytes, using parasite LDH activity as an index of growth.
Format: functional, organism-based
Conditions: Plasmodium falciparum, 3D7

Point of comparison: `Cc1ccc(CNC(=O)[C@H](CC(C)C)Nc2cc(C)nc(NCC3CCCCC3)n2)cc1`, XC50 926 nM. Against it:
- O=[N+]([O-])c1ccc(/C=N/O)nc1 — within 1.5-fold, 872 nM
- COc1cc(/C=N/Nc2nc(Nc3ccccc3)nc(Nc3ccccc3)n2)ccc1OCc1ccccc1[N+](=O)[O-] — within 1.5-fold, 806 nM
- CN(Cc1ccc(-c2ccc(C(F)(F)F)cc2)cc1)C(=O)Cn1c(CCc2cccc(F)c2F)nc(=O)c2ccc(N3CCN(CCN4CCCCC4)CC3)nc21 — within 1.5-fold, 764 nM
- O=C(Cn1c(CCc2cccc(F)c2F)nc(=O)c2ccccc21)N(CCN1CCCC1)Cc1ccc(-c2ccc(C(F)(F)F)cc2)cc1 — within 1.5-fold, 711 nM
- CCc1nc(N)nc(N)c1-c1ccc(C(C)(C)C)cc1 — 3.9-fold lower, 235 nM
- COc1ccc(NC(=O)NC2CCN(c3ccnc4cc(Cl)ccc34)C2)cc1 (stereo not given) — 9.3-fold lower, 99.3 nM
- CCN(CCCN1CCCCC1)c1cc(C)nc(Nc2cc(Br)ccc2C)n1 — 2.3-fold lower, 405 nM
- O=c1nc(NCCCNCc2cc3c(Cl)cc(Cl)cc3[nH]2)[nH]c2ccsc12 — within 1.5-fold, 1120 nM
- CCCCCN1CCC(NS(=O)(=O)c2cccc(C(=O)Nc3ccc(Cl)cc3)c2)CC1 — within 1.5-fold, 918 nM
- COc1ccc2nccc([C@@H](O)CN3CCC(NCc4cc5ccc(C#N)cc5[nH]4)CC3)c2c1 — 9.7-fold lower, 95 nM
- c1cc(CN2CCC(CCN3CCCCC3)CC2)cc(-c2csc(-c3nc4ccccc4[nH]3)c2)c1 — 6.5-fold lower, 142 nM
- COc1ccc2nc3cc(Cl)ccc3c(NCCCO)c2c1 — within 1.5-fold, 783 nM
- Cc1ncc(CN2CCC(C(=O)Nc3ccc(-c4nc5ccccc5o4)cc3)CC2)s1 — 2.4-fold lower, 393 nM
- CCc1c(CCNCCCCCNCCc2ccc(OC)c(OC)c2CC)ccc(OC)c1OC — within 1.5-fold, 1110 nM
- COc1ccc(/C=C/C(=O)N2CCc3cc4nccc(N5CCN6CCC[C@H]6C5)c4cc32)cc1 — within 1.5-fold, 642 nM
- CC(C)(C)c1ccc(-c2nc3c(ccc4nc(N)nc(N)c43)[nH]2)cc1 — 5.9-fold lower, 158 nM
- Cc1ccccc1C(=O)Nc1cccc(-c2nc3ncccn3c2C)c1 — within 1.5-fold, 765 nM
- CC(C)CN1C(=O)c2ccc(C(=O)Nc3nccs3)cc2C1=O — within 1.5-fold, 971 nM
- O=C(Nc1ccccc1)OCCOc1ccc(CC2SC(=O)NC2=O)cc1 (stereo not given) — 2.5-fold lower, 371 nM
- O=C(O)CCSc1ncnc2[nH]cnc12 — 7.2-fold lower, 129 nM
- CC(C)(C)SC1SC(SC(C)(C)C)C(OC(=O)c2ccccc2)C(OC(=O)c2ccccc2)C1OC(=O)c1ccccc1 (stereo not given) — within 1.5-fold, 937 nM
- Oc1ccc(CCNc2nc(NCc3cccc(OCc4cccc(F)c4)c3)nc(N3CCNCC3)n2)cc1 — within 1.5-fold, 1340 nM
- Cc1cc(-c2ccc3c(c2)CCN(CCC2CCC(NC(=O)/C=C/c4cccc(F)c4)CC2)CC3)on1 (stereo not given) — within 1.5-fold, 746 nM
- COc1ccc(CN2C(=S)N(Cc3ccccc3)C(=O)C2CC(=O)Nc2ccccc2)cc1OC (stereo not given) — within 1.5-fold, 844 nM
- N=C(N)NN=Cc1c[nH]c2ccc(-c3ccccc3)cc12 — 1.8-fold lower, 528 nM
- Cc1cc(C)cc(OCC(O)CN(Cc2cc(Cl)cc(Cl)c2)C(=O)Nc2ccccc2Cl)c1 (stereo not given) — within 1.5-fold, 944 nM
- O=C(/C=C/c1cccc(Br)c1)NCCCCCN1CCC(c2c[nH]c3ccccc23)CC1 — within 1.5-fold, 634 nM
- CCN1CCN(c2cc(C)c3cc(NC(=O)c4ccc(Br)o4)ccc3n2)CC1 — within 1.5-fold, 755 nM
- Cc1cccc2nc(-c3ccc(-c4ccc(NC(=O)Nc5ccc(Cl)cc5)cc4)s3)[nH]c12 — 6.1-fold lower, 152 nM
- COc1ccc2nccc([C@@H](O)CN3CCC(NC(=O)/C=C/c4cccc(NC(C)=O)c4)CC3)c2c1 — within 1.5-fold, 963 nM
- CNC(=O)c1cc(F)c(F)cc1Nc1nc(Nc2cccc(CS(C)(=O)=O)c2)ncc1Cl — within 1.5-fold, 1020 nM
- COc1ccc(CCNC(=O)c2ccccc2O)cc1-c1ccc(C(C)(C)C)cc1 — 1.6-fold lower, 563 nM
- O=C(Nc1ccc(OC2CCN(Cc3ccsc3)C2)c(Cl)c1)c1ccco1 (stereo not given) — 1.5-fold lower, 602 nM
- Cc1cc(OCCCNc2nc(NCCc3ccc(O)cc3)nc(N3CCNCC3)n2)c(Cl)c(C)c1Cl — within 1.5-fold, 956 nM
- CC(C)CCN(Cc1cncn1Cc1cccc(C(F)(F)F)c1)C(=O)c1cncc(-c2ccccc2)c1 — within 1.5-fold, 774 nM
- CCNc1cc(C(=O)N[C@@H](Cc2ccccc2)[C@H](O)CNCc2cc(OC)cc(OC)c2)cc(N2CCCC2=O)c1 — within 1.5-fold, 736 nM
- COc1ccccc1N(C)CCNc1cc(C)nc(Nc2ccccc2)n1 — within 1.5-fold, 1070 nM
- CN(c1cc(NC(=O)c2ccc(F)cc2)ccn1)C1CCN(Cc2cccc(F)c2)CC1 — 1.9-fold lower, 495 nM
- CC(C)[C@@H](NC(=O)NC1CCC(CCN2C3CCC2CC(OC(=O)C(CO)c2ccccc2)C3)CC1)C(O)(c1ccccc1)c1ccccc1 (stereo not given in full) — within 1.5-fold, 812 nM
- O=C(/C=C/c1ccc(Cl)c(Cl)c1)NCCCCCCN1CCN(C(=O)Nc2cccc(Cl)c2)CC1 — within 1.5-fold, 981 nM
- O=C1NC(c2ccccc2)C2(CCN(CC(O)COc3cccc4ncccc34)CC2)O1 (stereo not given) — within 1.5-fold, 743 nM
- O=C(NCC(NCCCNc1cc(=O)c2ccccc2[nH]1)c1cc(Br)cc(Br)c1)C1=CCCC1 (stereo not given) — within 1.5-fold, 901 nM
- COc1ccc(Nc2nc(NC3CCCC3)cc(-c3ccc(OC)cc3)n2)cc1 — within 1.5-fold, 1030 nM
- Cc1cc(NC(=O)c2cc(Br)ccc2Cl)n(-c2nc(C)c(C)c(=O)[nH]2)n1 — within 1.5-fold, 1130 nM
- COc1ccc2nccc([C@@H](O)CN3CCC(NCCOc4ccccc4C(F)(F)F)CC3)c2c1 — within 1.5-fold, 753 nM
- CN(C)c1ccc(CN2CCC(CNC(=O)c3cc(-c4ccccc4F)cs3)C2)cc1 (stereo not given) — within 1.5-fold, 911 nM
- Clc1ccccc1CCNCC1CCN(CC2CCCCC2)CC1 — within 1.5-fold, 692 nM
- CN1CCN(CC(=O)Nc2ccc(-c3ccc(-c4nc5cc(C(F)(F)F)ccc5[nH]4)s3)cc2)CC1 — 1.6-fold lower, 569 nM
- COc1ccc(C(C(=O)NC2CCN(C[C@H](O)c3ccnc4ccc(OC)cc34)CC2)N2CCN(c3ccc(Cl)c(Cl)c3)CC2)cc1 (stereo not given in full) — 4.5-fold lower, 204 nM
- O=C(NCCCCCN1CCC(c2c[nH]c3ccccc23)CC1)Nc1ccc(I)cc1 — within 1.5-fold, 991 nM
- NC(=O)C1CCN(Cc2cccc(-c3ccc(-c4nc5cc(C(F)(F)F)ccc5[nH]4)cc3)c2)CC1 — 1.5-fold lower, 610 nM
- CN1CCC(Oc2ccc(CN3CC[C@H](NC(=O)c4cccc(C#N)c4)C3)c3ccccc23)C1 (stereo not given in full) — within 1.5-fold, 804 nM
- CCN(CC)CCCC(C)Nc1ccnc2ccc(-c3ccccc3)cc12 (stereo not given) — within 1.5-fold, 652 nM
- COC(=O)COc1cc(C(=O)NCCCCN2CCC(c3ccc4c(c3OC)CCCC4)CC2)ccc1-c1ccc(Cl)cc1 — 3.6-fold lower, 257 nM
- CCCN1CCCN(Cc2cccc(NC(=O)c3ccc(-c4ccccc4)cc3)c2)CC1 — within 1.5-fold, 1110 nM
- CC(C)N1CCN(C(CN2CCN(CCCOc3ccc4nonc4c3)CC2)c2ccc(F)cc2)CC1 (stereo not given) — within 1.5-fold, 796 nM
- Cc1nnsc1C(=O)Nc1cccc(-c2cccc(-c3nc4cccc(C)c4[nH]3)c2)c1 — 3.5-fold lower, 267 nM
- Cc1cccc2nc(-c3cccc(-c4cccc(NC(=O)c5ccoc5)c4)c3)[nH]c12 — 4.2-fold lower, 219 nM
- S=C(NCC1CCCCC1)NC1CCC(CN2CCC(c3c[nH]c4ccccc34)CC2)CC1 (stereo not given) — within 1.5-fold, 1110 nM
- COc1ccc(CNCc2ccc(-c3ccc(-c4nc5cc(F)ccc5[nH]4)cc3)cc2)cc1 — 3.7-fold lower, 249 nM
- CC(C)(CNCc1ccc(C(F)(F)F)cc1)c1nc(-c2ccnc(N)n2)c(-c2ccc(Cl)c(O)c2)[nH]1 — 6.1-fold lower, 152 nM
- Cc1cc2ncn(-c3ccnc(N4CCN(CCCN5CCCC5)CC4)n3)c2cc1C — within 1.5-fold, 828 nM
- COc1cc2nc(N3CCC(CNCc4ccc(-c5ccc(C(F)(F)F)cc5)cc4)CC3)nc(N)c2cc1OC — 11-fold lower, 86.9 nM
- O=C1NC(c2ccc(N3CCCCCC3)cc2)Nc2ccccc21 (stereo not given) — 1.6-fold lower, 566 nM
- CCOc1ccc(Br)cc1/C=C/C(=O)Nc1ccc2c(c1)CCCN(C)C2 — within 1.5-fold, 1050 nM
- CCc1cn2c3c(cc(C(=O)N[C@@H](Cc4ccccc4)[C@H](O)CNC4CCCCC4)cc13)N(CC)S(=O)(=O)CC2 — 29-fold lower, 31.4 nM
- CCCCCN1CCCC(NS(=O)(=O)c2cccc(C(=O)Nc3cccc(C(F)(F)F)c3)c2)C1 (stereo not given) — within 1.5-fold, 1070 nM
- COCCNCc1cccc(C#Cc2cc3ncnc(Nc4ccc(OCc5cccc(F)c5)c(Cl)c4)c3s2)n1 — within 1.5-fold, 739 nM
- CCNc1cc(C)nc(Nc2ccc(NC(=O)c3ccccc3)cc2)n1 — within 1.5-fold, 1020 nM
- COc1ccc(Nc2nc(NC3CCN(Cc4ccccc4)CC3)cc(-c3ccncc3)n2)cc1 — within 1.5-fold, 992 nM
- COc1ccccc1/C=C/C(=O)N(C)C1CCN(CCCCCNC(=O)/C=C/c2ccc(Cl)c(Cl)c2)C1 (stereo not given) — within 1.5-fold, 867 nM
- CCCCc1ccc(S(=O)(=O)Nc2ccc3c(c2)CCN(Cc2c[nH]c4cnccc24)CC3)cc1 — within 1.5-fold, 674 nM
- Cc1cc(N(C)C)nc(Nc2ccc(NC(=O)c3ccc(F)cc3)cc2)n1 — within 1.5-fold, 709 nM
- CCCN(CCC)C(=O)c1cc(C(=O)N[C@@H](Cc2ccccc2)[C@H](O)CNC2CC2)cc(N2CCCCS2(=O)=O)c1 — 5.9-fold lower, 156 nM
- CCOCn1c(-c2ccccc2)cc2c3c(N)nc(N)nc3ccc21 — 5-fold lower, 186 nM
- CCC(C)(C)c1ccc(N2C(N)=NC(N)=NC2(C)C)cc1 — 78-fold lower, 11.8 nM
- CCNc1cc(C(=O)N[C@@H](Cc2ccccc2)[C@H](O)CN[C@@H]2CCc3ccccc32)cc(N2CCCCS2(=O)=O)c1 — 1.7-fold lower, 555 nM
- CS(=O)(=O)c1ccc2c(c1)CCN(CCC1CCC(NC(=O)C(=Cc3cccc(C#N)c3)c3ccc(-c4ccccc4)cc3)CC1)CC2 (stereo not given) — within 1.5-fold, 839 nM
- N#Cc1cncc(-c2nc3c(N4CCN(c5cnccn5)CC4)cccc3n2CCNCc2ccccc2)c1 — within 1.5-fold, 912 nM
- CCOc1ccc2[nH]c(C)cc(=NN=Cc3cccc(F)c3)c2c1 — within 1.5-fold, 736 nM
- CC[C@H](C)CNC(=O)c1cncc(-c2ccc(CN(C)C3CCN(C)CC3)cc2)c1 — within 1.5-fold, 987 nM
- CC(CNC(=O)[C@H]1CNCCN1C(=O)CCCc1ccccc1)c1ccccc1 (stereo not given in full) — within 1.5-fold, 915 nM
- CN(C)c1cccc2c1nc(-c1ccco1)n2CCNCc1ccccc1 — within 1.5-fold, 814 nM
- CCC(C)NS(=O)(=O)c1ccc2nc(Nc3ccc(C)c(Cl)c3)n(C3CCCCC3)c2c1 (stereo not given) — 1.8-fold lower, 511 nM
- O=C(CCN1C(=O)c2ccccc2C1=O)N1CCN(CC=Cc2ccccc2)CC1 — 1.7-fold lower, 541 nM
- Cc1ccc(C)c(N2CCN(Cc3ccccc3O)CC2)c1 — within 1.5-fold, 940 nM
- Cc1ccc(-n2ncc(C(=O)Nc3cc(Cl)cc(Cl)c3)c2C2CCNCC2)cc1C — 1.7-fold lower, 551 nM
- CO[C@@H]1C[C@@H](C(=O)Nc2ccccc2)N(c2ccc(C#N)c3ccccc23)C1 — within 1.5-fold, 907 nM
- CCN(CC)c1ccc(C=CC(=O)NCCN2CCC(N(C)C3CCCCC3C)CC2)cc1 (stereo not given) — within 1.5-fold, 965 nM
- Nc1nccc2ccc(-c3cccc(OCc4ccccc4)c3)cc12 — 3.2-fold lower, 289 nM
- CC(C)(C)OC(=O)NCc1ccc(Nc2nnc(-c3ccc(OCC(=O)NC[C@@H]4CC[C@H]5C[C@@H]4C5(C)C)c([N+](=O)[O-])c3)o2)cc1 — within 1.5-fold, 911 nM
- COCCn1c(-c2cccc(Cl)c2)nn(-c2ccc([N+](=O)[O-])cc2C#N)c1=S — 5.2-fold lower, 178 nM
- O=C(NCCCCCN1CCC(c2c[nH]c3ccccc23)CC1)Nc1cccc(C(F)(F)F)c1 — within 1.5-fold, 1000 nM
- CN=C(NC)c1cccc(NC(=O)C=Cc2ccc(C=CC(=O)Nc3cccc(C(=NC)NC)c3)cc2)c1 — 5.6-fold lower, 164 nM
